Results: article PMC8364686, “Safety, tolerability, pharmacokinetics and pharmacodynamics of single oral doses of BI 187004, an inhibitor of 11beta-hydroxysteroid dehydrogenase-1, in healthy male volunteers with overweight or obesity” (Clinical Diabetes and Endocrinology, 2021)

Test: Plasma pharmacokinetics of BI 187004 after single oral doses (LC–MS/MS)
Conditions: male, human, plasma, po
[1] = 10 mg, Plasma concentration Mean, 10 mg single oral
[2] = 10 mg, Plasma concentration Median, 10 mg single oral
[3] = 10 mg, Plasma concentration gMean, 10 mg single oral

Experimental: This was a randomized, double-blind, placebo-controlled, single rising dose study conducted at a single center in Germany. […] Follow-up on an ambulatory basis was performed between 11 and 15 days after study drug administration. […] At the time of use the oral solution for dosing was prepared using the PFOS and a co-supplied aqueous solvent containing HP-beta-cyclodextrin 100 mg/mL. The lowest dose level solutions were prepared by further dilution of the lower concentration solution with additional solvent.
For each accepted run, the acceptance criteria for the calibration standards and quality controls were met.

N#Cc1ccc2c(c1)[C@H]1CCCN(C(=O)c3ccc4[nH]cnc4c3)[C@H]1C2 [BI 187004]
concentration at 24 h [1]: 76.9 nM
concentration at 36 h [1]: 30.2 nM
concentration at 48 h [1]: 22.8 nM
concentration at 72 h [1]: 10.7 nM
concentration at 96 h [1]: 5.72 nM
concentration at 0.5 h (10 mg, Plasma concentration Median, 10 mg single oral, 0.5 h): 363 nM
concentration at 1 h (10 mg, Plasma concentration Median, 10 mg single oral, 1 h): 413 nM
concentration at 1.5 h (10 mg, Plasma concentration Median, 10 mg single oral, 1.5 h): 435 nM
concentration at 2 h (10 mg, Plasma concentration Median, 10 mg single oral, 2 h): 396 nM
concentration at 2.5 h (10 mg, Plasma concentration Median, 10 mg single oral, 2.5 h): 381 nM
concentration at 3 h (10 mg, Plasma concentration Median, 10 mg single oral, 3 h): 334 nM
concentration at 4 h (10 mg, Plasma concentration Median, 10 mg single oral, 4 h): 368 nM
concentration at 5 h (10 mg, Plasma concentration Median, 10 mg single oral, 5 h): 272 nM
concentration at 6 h (10 mg, Plasma concentration Median, 10 mg single oral, 6 h): 243 nM
concentration at 8 h (10 mg, Plasma concentration Median, 10 mg single oral, 8 h): 217 nM
concentration at 10 h [2]: 179 nM
concentration at 12 h [2]: 147 nM
concentration at 24 h [2]: 80 nM
concentration at 36 h [2]: 29.6 nM
concentration at 48 h [2]: 22.4 nM
concentration at 72 h [2]: 9.36 nM
concentration at 96 h [2]: 5.09 nM
concentration at 0.5 h (10 mg, Plasma concentration gMean, 10 mg single oral, 0.5 h): 279 nM
concentration at 1 h (10 mg, Plasma concentration gMean, 10 mg single oral, 1 h): 426 nM
concentration at 1.5 h (10 mg, Plasma concentration gMean, 10 mg single oral, 1.5 h): 435 nM
concentration at 2 h (10 mg, Plasma concentration gMean, 10 mg single oral, 2 h): 380 nM
concentration at 2.5 h (10 mg, Plasma concentration gMean, 10 mg single oral, 2.5 h): 372 nM
concentration at 3 h (10 mg, Plasma concentration gMean, 10 mg single oral, 3 h): 336 nM
concentration at 4 h (10 mg, Plasma concentration gMean, 10 mg single oral, 4 h): 340 nM
concentration at 5 h (10 mg, Plasma concentration gMean, 10 mg single oral, 5 h): 270 nM
concentration at 6 h (10 mg, Plasma concentration gMean, 10 mg single oral, 6 h): 254 nM
concentration at 8 h (10 mg, Plasma concentration gMean, 10 mg single oral, 8 h): 208 nM
concentration at 10 h [3]: 174 nM
concentration at 12 h [3]: 140 nM
concentration at 24 h [3]: 71.3 nM
concentration at 36 h [3]: 26.3 nM
concentration at 48 h [3]: 20.5 nM
concentration at 72 h [3]: 10.2 nM
concentration at 96 h [3]: 5.48 nM
concentration at 1 h (10 mg, Plasma concentration, individual subjects, 10 mg single oral, planned time 1 h): 519 nM
concentration at 1.5 h (10 mg, Plasma concentration, individual subjects, 10 mg single oral, planned time 1.5 h): 537 nM
concentration at 2 h (10 mg, Plasma concentration, individual subjects, 10 mg single oral, planned time 2 h): 437 nM
concentration at 2.5 h (10 mg, Plasma concentration, individual subjects, 10 mg single oral, planned time 2.5 h): 442 nM
concentration at 3 h (10 mg, Plasma concentration, individual subjects, 10 mg single oral, planned time 3 h): 405 nM
concentration at 4 h (10 mg, Plasma concentration, individual subjects, 10 mg single oral, planned time 4 h): 412 nM
concentration at 5 h (10 mg, Plasma concentration, individual subjects, 10 mg single oral, planned time 5 h): 352 nM
concentration at 6 h (10 mg, Plasma concentration, individual subjects, 10 mg single oral, planned time 6 h): 353 nM
concentration at 8 h (10 mg, Plasma concentration, individual subjects, 10 mg single oral, planned time 8 h): 241 nM
AUC(0-inf) (20 mg): 12.4 µM·h
AUC(0-t) (20 mg): 9.45 µM·h
Cmax (20 mg): 1030 nM
Tmax (20 mg): 1.38 h
Vd/F (20 mg): 144 L
half-life (20 mg): 21.2 h
concentration at 0.5 h (20 mg, BI 187004 plasma concentrations, 20 mg single oral, planned time 0.5 h, Max): 1050 nM
concentration at 0.5 h (20 mg, BI 187004 plasma concentrations, 20 mg single oral, planned time 0.5 h, Mean): 431 nM
concentration at 0.5 h (20 mg, BI 187004 plasma concentrations, 20 mg single oral, planned time 0.5 h, Median): 215 nM
concentration at 0.5 h (20 mg, BI 187004 plasma concentrations, 20 mg single oral, planned time 0.5 h, Min): 34.3 nM
concentration at 0.5 h (20 mg, BI 187004 plasma concentrations, 20 mg single oral, planned time 0.5 h, gMean): 211 nM
concentration at 1 h (20 mg, BI 187004 plasma concentrations, 20 mg single oral, planned time 1 h, Max): 1130 nM
concentration at 1 h (20 mg, BI 187004 plasma concentrations, 20 mg single oral, planned time 1 h, Mean): 885 nM
concentration at 1 h (20 mg, BI 187004 plasma concentrations, 20 mg single oral, planned time 1 h, Median): 1030 nM
concentration at 1 h (20 mg, BI 187004 plasma concentrations, 20 mg single oral, planned time 1 h, Min): 236 nM
concentration at 1 h (20 mg, BI 187004 plasma concentrations, 20 mg single oral, planned time 1 h, gMean): 788 nM
concentration at 1.5 h (20 mg, BI 187004 plasma concentrations, 20 mg single oral, planned time 1.5 h, Max): 1210 nM
concentration at 1.5 h (20 mg, BI 187004 plasma concentrations, 20 mg single oral, planned time 1.5 h, Mean): 969 nM
concentration at 1.5 h (20 mg, BI 187004 plasma concentrations, 20 mg single oral, planned time 1.5 h, Median): 944 nM
concentration at 1.5 h (20 mg, BI 187004 plasma concentrations, 20 mg single oral, planned time 1.5 h, Min): 824 nM
concentration at 1.5 h (20 mg, BI 187004 plasma concentrations, 20 mg single oral, planned time 1.5 h, gMean): 960 nM
concentration at 1.5 h (20 mg, BI 187004 plasma concentrations, 20 mg single oral, planned time 1.5 h, individual subjects): 1210 nM
concentration at 2 h (20 mg, BI 187004 plasma concentrations, 20 mg single oral, planned time 2 h, Max): 1100 nM
concentration at 2 h (20 mg, BI 187004 plasma concentrations, 20 mg single oral, planned time 2 h, Mean): 877 nM
concentration at 2 h (20 mg, BI 187004 plasma concentrations, 20 mg single oral, planned time 2 h, Median): 890 nM
concentration at 2 h (20 mg, BI 187004 plasma concentrations, 20 mg single oral, planned time 2 h, Min): 630 nM
concentration at 2 h (20 mg, BI 187004 plasma concentrations, 20 mg single oral, planned time 2 h, gMean): 863 nM
concentration at 2 h (20 mg, BI 187004 plasma concentrations, 20 mg single oral, planned time 2 h, individual subjects): 1100 nM
concentration at 2.5 h (20 mg, BI 187004 plasma concentrations, 20 mg single oral, planned time 2.5 h, Max): 1060 nM
concentration at 2.5 h (20 mg, BI 187004 plasma concentrations, 20 mg single oral, planned time 2.5 h, Mean): 860 nM
concentration at 2.5 h (20 mg, BI 187004 plasma concentrations, 20 mg single oral, planned time 2.5 h, Median): 866 nM
concentration at 2.5 h (20 mg, BI 187004 plasma concentrations, 20 mg single oral, planned time 2.5 h, Min): 619 nM
concentration at 2.5 h (20 mg, BI 187004 plasma concentrations, 20 mg single oral, planned time 2.5 h, gMean): 843 nM
concentration at 2.5 h (20 mg, BI 187004 plasma concentrations, 20 mg single oral, planned time 2.5 h, individual subjects): 1060 nM
concentration at 3 h (20 mg, BI 187004 plasma concentrations, 20 mg single oral, planned time 3 h, Max): 945 nM
concentration at 3 h (20 mg, BI 187004 plasma concentrations, 20 mg single oral, planned time 3 h, Mean): 760 nM
concentration at 3 h (20 mg, BI 187004 plasma concentrations, 20 mg single oral, planned time 3 h, Median): 770 nM
concentration at 3 h (20 mg, BI 187004 plasma concentrations, 20 mg single oral, planned time 3 h, Min): 586 nM
concentration at 3 h (20 mg, BI 187004 plasma concentrations, 20 mg single oral, planned time 3 h, gMean): 746 nM
concentration at 3 h (20 mg, BI 187004 plasma concentrations, 20 mg single oral, planned time 3 h, individual subjects): 945 nM
concentration at 4 h (20 mg, BI 187004 plasma concentrations, 20 mg single oral, planned time 4 h, Max): 896 nM
concentration at 4 h (20 mg, BI 187004 plasma concentrations, 20 mg single oral, planned time 4 h, Mean): 724 nM
concentration at 4 h (20 mg, BI 187004 plasma concentrations, 20 mg single oral, planned time 4 h, Median): 748 nM
concentration at 4 h (20 mg, BI 187004 plasma concentrations, 20 mg single oral, planned time 4 h, Min): 531 nM
concentration at 4 h (20 mg, BI 187004 plasma concentrations, 20 mg single oral, planned time 4 h, gMean): 707 nM
concentration at 4 h (20 mg, BI 187004 plasma concentrations, 20 mg single oral, planned time 4 h, individual subjects): 896 nM
concentration at 5 h (20 mg, BI 187004 plasma concentrations, 20 mg single oral, planned time 5 h, Max): 883 nM
concentration at 5 h (20 mg, BI 187004 plasma concentrations, 20 mg single oral, planned time 5 h, Mean): 653 nM
concentration at 5 h (20 mg, BI 187004 plasma concentrations, 20 mg single oral, planned time 5 h, Median): 644 nM
concentration at 5 h (20 mg, BI 187004 plasma concentrations, 20 mg single oral, planned time 5 h, Min): 463 nM
concentration at 5 h (20 mg, BI 187004 plasma concentrations, 20 mg single oral, planned time 5 h, gMean): 634 nM
concentration at 5 h (20 mg, BI 187004 plasma concentrations, 20 mg single oral, planned time 5 h, individual subjects): 773 nM
concentration at 6 h (20 mg, BI 187004 plasma concentrations, 20 mg single oral, planned time 6 h, Max): 847 nM
concentration at 6 h (20 mg, BI 187004 plasma concentrations, 20 mg single oral, planned time 6 h, Mean): 566 nM
concentration at 6 h (20 mg, BI 187004 plasma concentrations, 20 mg single oral, planned time 6 h, Median): 529 nM
concentration at 6 h (20 mg, BI 187004 plasma concentrations, 20 mg single oral, planned time 6 h, Min): 420 nM
